{
  "source": "ChEMBL document CHEMBL4052759",
  "about": "“Discovery of DS79182026: A potent orally active hepcidin production inhibitor” (Bioorg Med Chem Lett, 2017)",
  "key": {"[1]": {"test": "Oral bioavailability in C57BL/6J mouse at 30 mg/kg by LC-MS/MS analysis", "type": "ADME, organism-based", "details": "in vivo"}, "[2]": {"target": "Insulin receptor (Homo sapiens) (UniProt P06213)", "sequence (P06213 28-758 limits assumed)": "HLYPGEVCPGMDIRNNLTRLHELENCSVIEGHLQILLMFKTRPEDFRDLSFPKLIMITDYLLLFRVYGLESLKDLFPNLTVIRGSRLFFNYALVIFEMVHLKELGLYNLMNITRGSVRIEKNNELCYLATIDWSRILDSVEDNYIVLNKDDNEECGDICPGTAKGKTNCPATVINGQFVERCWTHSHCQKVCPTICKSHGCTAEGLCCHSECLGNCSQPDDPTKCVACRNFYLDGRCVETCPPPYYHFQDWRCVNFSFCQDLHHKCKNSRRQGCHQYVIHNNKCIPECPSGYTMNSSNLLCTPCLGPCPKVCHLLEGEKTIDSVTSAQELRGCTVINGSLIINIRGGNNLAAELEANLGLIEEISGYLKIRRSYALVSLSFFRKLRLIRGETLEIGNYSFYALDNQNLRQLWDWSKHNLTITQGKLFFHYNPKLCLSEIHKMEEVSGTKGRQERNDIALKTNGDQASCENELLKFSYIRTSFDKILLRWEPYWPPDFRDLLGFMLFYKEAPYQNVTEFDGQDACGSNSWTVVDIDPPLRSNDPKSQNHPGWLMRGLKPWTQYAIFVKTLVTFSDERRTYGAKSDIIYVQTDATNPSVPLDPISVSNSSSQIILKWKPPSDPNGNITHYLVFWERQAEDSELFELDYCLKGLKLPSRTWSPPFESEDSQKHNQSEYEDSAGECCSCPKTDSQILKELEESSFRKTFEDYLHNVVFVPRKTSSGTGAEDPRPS", "sequence (P06213 763-1382 limits assumed)": "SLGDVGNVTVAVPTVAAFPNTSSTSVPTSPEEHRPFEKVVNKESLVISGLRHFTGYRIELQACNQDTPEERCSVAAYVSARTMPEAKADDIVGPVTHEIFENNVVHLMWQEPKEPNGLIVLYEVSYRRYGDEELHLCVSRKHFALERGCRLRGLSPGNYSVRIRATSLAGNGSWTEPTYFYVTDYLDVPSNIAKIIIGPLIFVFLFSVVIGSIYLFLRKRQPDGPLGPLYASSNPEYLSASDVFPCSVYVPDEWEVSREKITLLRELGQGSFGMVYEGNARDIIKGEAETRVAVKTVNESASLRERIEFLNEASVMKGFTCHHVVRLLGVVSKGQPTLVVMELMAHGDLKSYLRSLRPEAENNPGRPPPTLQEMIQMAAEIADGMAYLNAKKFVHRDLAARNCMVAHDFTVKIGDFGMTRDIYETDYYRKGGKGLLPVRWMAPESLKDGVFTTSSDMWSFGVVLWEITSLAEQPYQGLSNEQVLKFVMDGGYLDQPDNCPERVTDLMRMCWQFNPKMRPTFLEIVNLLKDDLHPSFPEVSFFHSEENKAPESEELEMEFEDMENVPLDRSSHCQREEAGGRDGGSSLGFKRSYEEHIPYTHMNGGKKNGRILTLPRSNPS", "test": "Inhibition of INSR (unknown origin) at 0.078 uM relative to control"}, "[3]": {"target": "Tyrosine-protein kinase Lyn (Homo sapiens) (UniProt P07948)", "sequence (P07948 2-512 limits assumed)": "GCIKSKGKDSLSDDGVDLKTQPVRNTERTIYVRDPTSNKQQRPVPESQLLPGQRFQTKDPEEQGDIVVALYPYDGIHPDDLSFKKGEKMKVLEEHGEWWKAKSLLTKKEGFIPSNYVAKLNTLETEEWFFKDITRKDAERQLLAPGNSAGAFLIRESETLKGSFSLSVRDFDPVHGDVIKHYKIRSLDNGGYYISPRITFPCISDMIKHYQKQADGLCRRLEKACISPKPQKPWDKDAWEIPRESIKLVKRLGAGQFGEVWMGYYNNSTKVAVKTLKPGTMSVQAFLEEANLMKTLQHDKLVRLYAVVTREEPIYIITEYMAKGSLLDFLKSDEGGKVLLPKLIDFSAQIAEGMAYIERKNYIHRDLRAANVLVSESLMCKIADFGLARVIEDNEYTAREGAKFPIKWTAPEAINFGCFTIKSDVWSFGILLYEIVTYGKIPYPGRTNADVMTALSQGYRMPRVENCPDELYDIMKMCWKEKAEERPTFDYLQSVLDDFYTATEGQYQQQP", "test": "Inhibition of LYN (unknown origin) at 0.078 uM relative to control"}, "[4]": {"target": "Casein kinase I isoform gamma-2 (Homo sapiens) (UniProt P78368)", "sequence (P78368 whole entry, looked up, canonical isoform)": "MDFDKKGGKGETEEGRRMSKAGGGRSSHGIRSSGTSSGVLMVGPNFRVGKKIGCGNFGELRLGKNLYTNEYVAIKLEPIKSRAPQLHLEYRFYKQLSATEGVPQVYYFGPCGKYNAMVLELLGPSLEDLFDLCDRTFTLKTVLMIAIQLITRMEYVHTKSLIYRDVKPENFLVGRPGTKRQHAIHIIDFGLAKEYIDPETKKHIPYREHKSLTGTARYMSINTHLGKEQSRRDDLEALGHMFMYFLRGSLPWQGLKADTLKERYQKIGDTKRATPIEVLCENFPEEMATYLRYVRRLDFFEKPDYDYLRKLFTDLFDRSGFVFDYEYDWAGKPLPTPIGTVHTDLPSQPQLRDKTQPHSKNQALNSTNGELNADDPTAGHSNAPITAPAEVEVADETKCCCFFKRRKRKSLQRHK", "test": "Inhibition of Casein kinase 1g2 (unknown origin) at 0.49 uM relative to control"}, "[5]": {"target": "Protein kinase C eta type (Homo sapiens) (UniProt P24723)", "test": "Inhibition of PKC-eta (unknown origin) at 0.49 uM relative to control"}, "[6]": {"target": "Serine/threonine-protein kinase Nek1 (Homo sapiens) (UniProt Q96PY6)", "test": "Inhibition of NEK1 (unknown origin) at 0.49 uM relative to control"}, "[7]": {"target": "Fibroblast growth factor receptor 4 (Homo sapiens) (UniProt P22455)", "sequence (P22455 22-802 limits assumed)": "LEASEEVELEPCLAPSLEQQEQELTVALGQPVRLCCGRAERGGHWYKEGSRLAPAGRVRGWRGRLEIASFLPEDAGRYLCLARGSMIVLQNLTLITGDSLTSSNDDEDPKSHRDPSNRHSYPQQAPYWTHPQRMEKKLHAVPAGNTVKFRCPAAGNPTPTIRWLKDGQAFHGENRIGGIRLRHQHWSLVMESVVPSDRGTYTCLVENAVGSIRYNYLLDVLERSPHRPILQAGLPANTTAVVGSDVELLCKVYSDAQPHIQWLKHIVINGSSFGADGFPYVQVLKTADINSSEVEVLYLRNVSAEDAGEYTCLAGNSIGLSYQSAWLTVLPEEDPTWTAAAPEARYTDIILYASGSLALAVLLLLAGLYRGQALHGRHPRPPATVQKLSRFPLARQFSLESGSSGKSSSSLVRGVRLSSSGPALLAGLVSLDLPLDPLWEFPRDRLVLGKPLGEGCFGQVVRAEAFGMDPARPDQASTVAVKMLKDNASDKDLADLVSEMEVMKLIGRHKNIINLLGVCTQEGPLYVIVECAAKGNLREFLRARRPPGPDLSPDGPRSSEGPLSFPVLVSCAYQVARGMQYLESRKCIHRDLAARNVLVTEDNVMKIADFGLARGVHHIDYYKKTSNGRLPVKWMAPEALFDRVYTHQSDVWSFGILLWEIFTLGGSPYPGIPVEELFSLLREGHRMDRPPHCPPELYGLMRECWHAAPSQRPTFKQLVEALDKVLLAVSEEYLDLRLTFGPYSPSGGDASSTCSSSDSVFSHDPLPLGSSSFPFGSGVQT", "test": "Inhibition of FGFR4 (unknown origin) at 0.49 uM relative to control"}, "[8]": {"target": "PAS domain-containing serine/threonine-protein kinase (Homo sapiens) (UniProt Q96RG2)", "test": "Inhibition of PASK (unknown origin) at 0.49 uM relative to control"}, "[9]": {"target": "Serine/threonine-protein kinase pim-1 (Homo sapiens) (UniProt P11309)", "sequence (P11309 whole entry, looked up)": "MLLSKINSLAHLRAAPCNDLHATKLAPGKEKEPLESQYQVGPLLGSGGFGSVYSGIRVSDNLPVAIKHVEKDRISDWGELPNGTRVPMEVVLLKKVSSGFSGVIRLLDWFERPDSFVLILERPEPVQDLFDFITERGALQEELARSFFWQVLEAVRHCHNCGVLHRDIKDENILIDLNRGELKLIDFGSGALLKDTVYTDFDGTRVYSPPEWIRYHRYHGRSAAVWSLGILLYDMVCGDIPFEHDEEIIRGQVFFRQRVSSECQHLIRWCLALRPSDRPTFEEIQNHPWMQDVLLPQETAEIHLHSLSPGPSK", "test": "Inhibition of PIM1 (unknown origin) at 0.49 uM relative to control"}, "[10]": {"target": "T1, Serine/threonine-protein kinase D2 (Homo sapiens) (UniProt Q9BZL6)", "T1 sequence (whole entry)": "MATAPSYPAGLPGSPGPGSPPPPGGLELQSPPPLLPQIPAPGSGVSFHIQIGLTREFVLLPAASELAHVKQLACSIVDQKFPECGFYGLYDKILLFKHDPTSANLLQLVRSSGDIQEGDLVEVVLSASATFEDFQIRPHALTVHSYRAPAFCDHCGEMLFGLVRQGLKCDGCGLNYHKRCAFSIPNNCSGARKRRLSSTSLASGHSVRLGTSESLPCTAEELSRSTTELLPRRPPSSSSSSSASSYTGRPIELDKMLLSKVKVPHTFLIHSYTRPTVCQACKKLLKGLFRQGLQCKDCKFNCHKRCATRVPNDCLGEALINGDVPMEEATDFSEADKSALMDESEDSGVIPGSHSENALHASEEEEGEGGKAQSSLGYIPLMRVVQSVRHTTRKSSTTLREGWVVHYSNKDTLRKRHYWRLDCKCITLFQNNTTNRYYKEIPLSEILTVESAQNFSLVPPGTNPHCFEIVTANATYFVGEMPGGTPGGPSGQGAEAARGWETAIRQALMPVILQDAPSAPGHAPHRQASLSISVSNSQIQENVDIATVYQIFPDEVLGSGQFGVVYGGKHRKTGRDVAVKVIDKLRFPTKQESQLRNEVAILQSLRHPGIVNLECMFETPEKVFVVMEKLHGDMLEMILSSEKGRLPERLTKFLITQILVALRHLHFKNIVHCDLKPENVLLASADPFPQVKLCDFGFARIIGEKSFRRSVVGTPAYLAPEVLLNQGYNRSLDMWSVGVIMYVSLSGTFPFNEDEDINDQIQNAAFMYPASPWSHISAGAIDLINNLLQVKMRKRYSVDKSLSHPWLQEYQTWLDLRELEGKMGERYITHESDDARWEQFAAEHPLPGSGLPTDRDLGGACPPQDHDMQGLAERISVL", "test": "Inhibition of PKD2 (unknown origin) at 0.49 uM relative to control"}, "[11]": {"test_system": "Epidermal growth factor receptor (Homo sapiens), P00533 [L858R,T790M]", "test": "Inhibition of EGFR T790M/L858R double mutant (unknown origin) at 0.49 uM relative to control"}, "[12]": {"target": "BDNF/NT-3 growth factors receptor (Homo sapiens) (UniProt Q16620)", "test": "Inhibition of NTRK2 (unknown origin) at 0.49 uM relative to control"}, "[13]": {"test_system": "Proto-oncogene tyrosine-protein kinase receptor Ret (Homo sapiens), P07949 [M918T]", "test": "Inhibition of RET M918T mutant (unknown origin) at 0.49 uM relative to control"}, "[14]": {"target": "Tyrosine-protein kinase SYK (Homo sapiens) (UniProt P43405)", "test": "Inhibition of SYK (unknown origin) at 0.49 uM relative to control"}, "[15]": {"target": "NT-3 growth factor receptor (Homo sapiens) (UniProt Q16288)", "test": "Inhibition of TRKC (unknown origin) at 0.49 uM relative to control"}, "[16]": {"organism": "Homo sapiens", "test": "Inhibition of p70S6K (unknown origin) at 0.45 uM relative to control"}, "[17]": {"target": "Protein kinase C gamma type (Homo sapiens) (UniProt P05129)", "test": "Inhibition of PKC-gamma (unknown origin) at 0.45 uM relative to control"}, "[18]": {"target": "CDK4/Cyclin D3 (Homo sapiens) (UniProt P11802+P30281)", "test": "Inhibition of CDK4/CyclinD3 (unknown origin) at 0.45 uM relative to control", "type": "protein-complex assay"}, "[19]": {"target": "Ribosomal protein S6 kinase alpha-1 (Homo sapiens) (UniProt Q15418)", "test": "Inhibition of RSK1 (unknown origin) at 0.45 uM relative to control"}, "[20]": {"target": "Dual specificity tyrosine-phosphorylation-regulated kinase 1A (Homo sapiens) (UniProt Q13627)", "test": "Inhibition of DYRK1a (unknown origin) at 0.45 uM relative to control"}, "[21]": {"target": "Mitogen-activated protein kinase 1 (Homo sapiens) (UniProt P28482)", "sequence (P28482 whole entry)": "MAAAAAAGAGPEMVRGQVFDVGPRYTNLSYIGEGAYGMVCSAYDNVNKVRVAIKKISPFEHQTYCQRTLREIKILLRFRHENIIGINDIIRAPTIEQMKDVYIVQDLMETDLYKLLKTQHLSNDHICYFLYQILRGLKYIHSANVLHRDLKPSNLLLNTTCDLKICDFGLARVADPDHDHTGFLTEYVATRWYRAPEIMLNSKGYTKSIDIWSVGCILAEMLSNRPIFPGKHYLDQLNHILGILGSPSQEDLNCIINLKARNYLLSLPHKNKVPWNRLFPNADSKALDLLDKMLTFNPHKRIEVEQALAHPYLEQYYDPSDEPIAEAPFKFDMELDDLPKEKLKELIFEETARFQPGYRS", "test": "Inhibition of Erk2 (unknown origin) at 0.45 uM relative to control"}, "[22]": {"target": "Serine/threonine-protein kinase PAK 4 (Homo sapiens) (UniProt O96013)", "test": "Inhibition of PAK4 (unknown origin) at 0.45 uM relative to control"}, "[23]": {"target": "Fibroblast growth factor receptor 4 (Homo sapiens) (UniProt P22455)", "test": "Inhibition of FGFR4 (unknown origin) at 0.45 uM relative to control"}, "[24]": {"target": "Insulin receptor (Homo sapiens) (UniProt P06213)", "test": "Inhibition of INSR (unknown origin) at 0.45 uM relative to control"}, "[25]": {"target": "Tyrosine-protein kinase Lyn (Homo sapiens) (UniProt P07948)", "test": "Inhibition of LYN (unknown origin) at 0.45 uM relative to control"}, "[26]": {"test_system": "Platelet-derived growth factor receptor alpha (Homo sapiens), P16234 [D842V]", "sequence (P16234 whole entry D842V)": "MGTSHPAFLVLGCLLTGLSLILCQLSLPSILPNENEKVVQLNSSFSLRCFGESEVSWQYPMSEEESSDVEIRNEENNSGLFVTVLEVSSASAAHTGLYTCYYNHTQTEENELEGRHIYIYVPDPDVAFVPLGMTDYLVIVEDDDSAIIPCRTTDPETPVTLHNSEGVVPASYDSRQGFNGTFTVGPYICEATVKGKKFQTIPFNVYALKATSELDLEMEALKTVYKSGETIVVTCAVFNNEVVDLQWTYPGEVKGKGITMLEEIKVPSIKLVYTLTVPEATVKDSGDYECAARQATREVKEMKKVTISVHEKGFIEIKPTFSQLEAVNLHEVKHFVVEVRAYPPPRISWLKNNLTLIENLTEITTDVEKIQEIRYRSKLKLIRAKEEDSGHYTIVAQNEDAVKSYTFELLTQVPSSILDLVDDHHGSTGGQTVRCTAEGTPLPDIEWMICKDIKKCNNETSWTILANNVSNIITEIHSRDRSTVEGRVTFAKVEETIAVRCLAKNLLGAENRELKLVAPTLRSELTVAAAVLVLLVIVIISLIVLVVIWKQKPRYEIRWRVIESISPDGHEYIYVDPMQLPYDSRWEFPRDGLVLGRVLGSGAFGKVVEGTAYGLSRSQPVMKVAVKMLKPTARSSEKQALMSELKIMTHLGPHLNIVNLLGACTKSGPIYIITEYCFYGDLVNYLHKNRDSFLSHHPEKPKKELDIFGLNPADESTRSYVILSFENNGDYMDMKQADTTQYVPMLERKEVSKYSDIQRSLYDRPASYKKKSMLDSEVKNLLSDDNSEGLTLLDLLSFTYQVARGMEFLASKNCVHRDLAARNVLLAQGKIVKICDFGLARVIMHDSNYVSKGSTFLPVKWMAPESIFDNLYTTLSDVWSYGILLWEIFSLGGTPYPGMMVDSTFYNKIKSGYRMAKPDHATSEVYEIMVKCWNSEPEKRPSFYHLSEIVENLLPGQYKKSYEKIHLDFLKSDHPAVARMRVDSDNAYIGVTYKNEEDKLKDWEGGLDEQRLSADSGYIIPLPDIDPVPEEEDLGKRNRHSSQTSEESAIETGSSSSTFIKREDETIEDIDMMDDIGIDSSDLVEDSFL", "test": "Inhibition of PDGFRA D842V mutant (unknown origin) at 0.45 uM relative to control"}, "[27]": {"target": "Serine/threonine-protein kinase DCLK1 (Homo sapiens) (UniProt O15075)", "test": "Inhibition of DCAMKL1 (unknown origin) at 0.45 uM relative to control"}, "[28]": {"test_system": "Tyrosine-protein kinase ABL1 (Homo sapiens), P00519 [Y253F]", "test": "Inhibition of ABL1 Y253F mutant (unknown origin) at 0.45 uM relative to control"}, "[29]": {"test_system": "Epidermal growth factor receptor (Homo sapiens), P00533 [T790M]", "test": "Inhibition of EGFR T790M mutant (unknown origin) at 0.45 uM relative to control"}, "[30]": {"test_system": "MAP4K2 (Homo sapiens)", "test": "Inhibition of GCK (unknown origin) at 0.45 uM relative to control"}},
  "data": [
    {"smiles": "COC(=O)Nc1noc2cc(-c3c(-c4ccccn4)n[nH]c3C)ccc12", "values": [
      {"measurement": "bioavailability", "setting": "[1]", "result": 100, "unit": "%"},
      {"measurement": "inhibition", "setting": "[2]", "result": 1.7, "unit": "%"},
      {"measurement": "inhibition", "setting": "[3]", "result": -0.3, "unit": "%"}
    ]},
    {"smiles": "Cc1[nH]nc(C2CC2)c1-c1ccc2c(NC(=O)C3CC3)noc2c1", "values": [
      {"measurement": "inhibition", "setting": "[4]", "result": 1, "unit": "%"},
      {"measurement": "inhibition", "setting": "[5]", "result": 7, "unit": "%"},
      {"measurement": "inhibition", "setting": "[6]", "result": 0.3, "unit": "%"},
      {"measurement": "inhibition", "setting": "[7]", "result": 0.3, "unit": "%"},
      {"measurement": "inhibition", "setting": "[8]", "result": 1.3, "unit": "%"},
      {"measurement": "inhibition", "setting": "[9]", "result": 9, "unit": "%"},
      {"measurement": "inhibition", "setting": "[10]", "result": 7.7, "unit": "%"},
      {"measurement": "inhibition", "setting": "[11]", "result": -1, "unit": "%"},
      {"measurement": "inhibition", "setting": "[12]", "result": 4.3, "unit": "%"},
      {"measurement": "inhibition", "setting": "[13]", "result": 1, "unit": "%"},
      {"measurement": "inhibition", "setting": "[14]", "result": 0.7, "unit": "%"},
      {"measurement": "inhibition", "setting": "[15]", "result": 6.3, "unit": "%"}
    ]},
    {"smiles": "Cc1n[nH]c(C)c1-c1ccc2c(NC(=O)c3ccc(N4CCN(C)CC4)cc3)n[nH]c2c1", "values": [
      {"measurement": "inhibition", "setting": "[16]", "result": 1.3, "unit": "%"},
      {"measurement": "inhibition", "setting": "[17]", "result": 18.7, "unit": "%"},
      {"measurement": "inhibition", "setting": "[18]", "result": -8.3, "unit": "%"},
      {"measurement": "inhibition", "setting": "[19]", "result": 27.3, "unit": "%"},
      {"measurement": "inhibition", "setting": "[20]", "result": 6.3, "unit": "%"},
      {"measurement": "inhibition", "setting": "[21]", "result": -0.3, "unit": "%"},
      {"measurement": "inhibition", "setting": "[22]", "result": 4, "unit": "%"},
      {"measurement": "inhibition", "setting": "[23]", "result": 0.7, "unit": "%"},
      {"measurement": "inhibition", "setting": "[24]", "result": 3, "unit": "%"},
      {"measurement": "inhibition", "setting": "[25]", "result": 32.3, "unit": "%"},
      {"measurement": "inhibition", "setting": "[26]", "result": 79.3, "unit": "%"},
      {"measurement": "inhibition", "setting": "[27]", "result": 0, "unit": "%"},
      {"measurement": "inhibition", "setting": "[28]", "result": 76, "unit": "%"},
      {"measurement": "inhibition", "setting": "[29]", "result": 0.7, "unit": "%"},
      {"measurement": "inhibition", "setting": "[30]", "result": 66, "unit": "%"}
    ]}
  ]
}
